Experimental data published in ChEMBL document CHEMBL3091388, “New cytotoxic benzosuberene analogs. Synthesis, molecular modeling and biological evaluation” (Bioorg Med Chem Lett, 2013).
pIC50: −log10 of the molar value.

Key:
CYP2C8 = target: T1, CYP2C8 (Homo sapiens, UniProt P10632); experiment: Inhibition of CYP2C8 (unknown origin) at 3 uM; format: ADME
T1 sequence (P10632 whole entry): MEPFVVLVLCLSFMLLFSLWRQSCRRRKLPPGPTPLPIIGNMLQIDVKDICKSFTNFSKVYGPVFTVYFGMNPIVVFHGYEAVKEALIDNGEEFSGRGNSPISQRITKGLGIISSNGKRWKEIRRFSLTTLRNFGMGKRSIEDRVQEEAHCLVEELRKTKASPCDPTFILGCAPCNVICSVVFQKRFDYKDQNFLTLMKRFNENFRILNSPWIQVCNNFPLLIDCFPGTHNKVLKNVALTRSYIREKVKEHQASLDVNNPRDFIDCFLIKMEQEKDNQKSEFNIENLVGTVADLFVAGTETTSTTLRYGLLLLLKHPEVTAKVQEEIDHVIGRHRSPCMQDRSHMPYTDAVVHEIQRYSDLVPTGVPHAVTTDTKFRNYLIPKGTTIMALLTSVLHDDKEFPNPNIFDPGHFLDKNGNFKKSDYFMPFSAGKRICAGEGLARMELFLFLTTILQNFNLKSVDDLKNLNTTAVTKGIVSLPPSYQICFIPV

[1] = Apparent permeability from apical to basolateral side in RRCK cells; format: ADME, cell-based, Canis lupus familiaris, MDCKII-LE; conditions: dog, MDCK
MDA-MB-468 = experiment: Cytotoxicity against human MDA-MB-468 cells assessed as cell viability after 4 days by MTS assay; format: functional, cell-based; conditions: MDA-MB-468, 96 h
CYP1A2 = target: T2, CYP1A2 (Homo sapiens, UniProt P05177); experiment: Inhibition of CYP1A2 (unknown origin) at 3 uM; format: ADME
T2 sequence (P05177 whole entry): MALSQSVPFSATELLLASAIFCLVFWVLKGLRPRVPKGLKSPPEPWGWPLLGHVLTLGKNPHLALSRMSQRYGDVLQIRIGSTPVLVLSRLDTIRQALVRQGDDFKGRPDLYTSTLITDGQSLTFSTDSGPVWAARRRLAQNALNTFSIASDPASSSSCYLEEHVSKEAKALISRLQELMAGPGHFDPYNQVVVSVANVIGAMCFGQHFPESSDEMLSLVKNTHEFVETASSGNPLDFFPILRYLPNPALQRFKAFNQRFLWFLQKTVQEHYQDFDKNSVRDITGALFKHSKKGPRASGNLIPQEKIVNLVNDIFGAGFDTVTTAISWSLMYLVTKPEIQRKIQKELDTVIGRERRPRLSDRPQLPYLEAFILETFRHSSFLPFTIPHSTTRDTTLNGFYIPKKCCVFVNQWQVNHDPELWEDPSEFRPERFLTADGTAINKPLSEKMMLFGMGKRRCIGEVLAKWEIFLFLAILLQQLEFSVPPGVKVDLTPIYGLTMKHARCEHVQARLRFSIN

BT-474 = experiment: Cytotoxicity against human BT474 cells assessed as cell viability after 4 days by MTS assay; format: functional, cell-based; conditions: BT-474, 96 h
NCI-N87 = experiment: Cytotoxicity against human NCI-N87 cells assessed as cell viability after 4 days by MTS assay; format: functional, cell-based; conditions: NCI-N87, 96 h
CYP3A4 = CYP3A4 (Homo sapiens, UniProt P08684); experiment: Inhibition of CYP3A4 (unknown origin) at 3 uM; format: ADME
Chain of CYP3A4 (P08684 whole entry): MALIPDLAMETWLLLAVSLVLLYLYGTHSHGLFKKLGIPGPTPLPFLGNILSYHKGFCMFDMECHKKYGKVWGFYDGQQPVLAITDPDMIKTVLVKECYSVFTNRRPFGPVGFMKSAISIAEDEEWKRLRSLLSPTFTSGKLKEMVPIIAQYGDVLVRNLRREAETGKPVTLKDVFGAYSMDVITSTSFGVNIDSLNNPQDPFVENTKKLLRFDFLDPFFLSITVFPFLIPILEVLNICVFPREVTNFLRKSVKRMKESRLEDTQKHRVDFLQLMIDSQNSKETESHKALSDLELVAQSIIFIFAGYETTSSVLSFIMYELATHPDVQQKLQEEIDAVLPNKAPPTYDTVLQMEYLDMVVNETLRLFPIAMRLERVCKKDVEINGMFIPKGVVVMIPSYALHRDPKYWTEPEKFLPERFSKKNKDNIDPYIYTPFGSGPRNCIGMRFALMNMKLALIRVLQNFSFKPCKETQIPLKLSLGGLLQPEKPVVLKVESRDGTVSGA

CYP2C9 = CYP2C9 (Homo sapiens, UniProt P11712); experiment: Inhibition of CYP2C9 (unknown origin) at 3 uM; format: ADME
Chain of CYP2C9 (P11712 whole entry): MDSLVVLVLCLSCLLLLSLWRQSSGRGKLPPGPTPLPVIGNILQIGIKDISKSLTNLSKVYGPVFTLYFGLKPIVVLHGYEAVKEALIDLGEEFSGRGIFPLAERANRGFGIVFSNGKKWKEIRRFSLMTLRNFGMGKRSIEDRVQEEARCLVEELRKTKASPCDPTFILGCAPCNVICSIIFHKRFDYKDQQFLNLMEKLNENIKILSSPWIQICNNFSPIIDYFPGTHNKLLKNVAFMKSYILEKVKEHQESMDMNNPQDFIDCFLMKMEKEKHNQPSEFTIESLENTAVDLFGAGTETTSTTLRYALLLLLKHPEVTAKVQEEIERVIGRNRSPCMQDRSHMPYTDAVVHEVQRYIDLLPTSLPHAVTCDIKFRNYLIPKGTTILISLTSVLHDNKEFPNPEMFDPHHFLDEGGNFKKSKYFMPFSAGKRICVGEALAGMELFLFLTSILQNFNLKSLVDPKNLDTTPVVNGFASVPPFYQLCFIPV

[2] = Apparent intrinsic clearance in human liver microsomes at 1 uM; format: ADME; conditions: read-out: CLH(app)
HUVEC = experiment: Cytotoxicity against HUVEC assessed as cell viability after 4 days by MTS assay; format: cell-based; conditions: Homo sapiens, 96 h
CYP2D6 = CYP2D6 (Homo sapiens, UniProt P10635); experiment: Inhibition of CYP2D6 (unknown origin) at 3 uM; format: ADME
Chain of CYP2D6 (P10635 whole entry): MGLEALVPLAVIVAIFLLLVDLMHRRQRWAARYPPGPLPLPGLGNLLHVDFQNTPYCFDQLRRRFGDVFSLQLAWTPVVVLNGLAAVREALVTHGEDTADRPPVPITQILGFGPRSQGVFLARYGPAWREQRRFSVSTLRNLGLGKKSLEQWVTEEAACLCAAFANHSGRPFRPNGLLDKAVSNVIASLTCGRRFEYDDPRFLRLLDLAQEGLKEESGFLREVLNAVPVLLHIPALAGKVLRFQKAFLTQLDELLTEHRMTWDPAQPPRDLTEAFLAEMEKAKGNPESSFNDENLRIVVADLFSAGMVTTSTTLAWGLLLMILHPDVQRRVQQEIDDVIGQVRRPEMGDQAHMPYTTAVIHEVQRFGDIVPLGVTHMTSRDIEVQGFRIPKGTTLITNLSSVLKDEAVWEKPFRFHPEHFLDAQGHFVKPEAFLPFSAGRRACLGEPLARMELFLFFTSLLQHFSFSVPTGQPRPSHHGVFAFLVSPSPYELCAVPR

MDR1 (ABCB1, P-gp) = MDR1 (ABCB1, P-gp) (Homo sapiens, UniProt P08183); experiment: Activity at MDR1 (unknown origin) expressed in MDCK cells assessed as efflux ratio of permeability at 2 uM; format: ADME, cell-based
Chain of MDR1 (ABCB1, P-gp) (P08183 whole entry): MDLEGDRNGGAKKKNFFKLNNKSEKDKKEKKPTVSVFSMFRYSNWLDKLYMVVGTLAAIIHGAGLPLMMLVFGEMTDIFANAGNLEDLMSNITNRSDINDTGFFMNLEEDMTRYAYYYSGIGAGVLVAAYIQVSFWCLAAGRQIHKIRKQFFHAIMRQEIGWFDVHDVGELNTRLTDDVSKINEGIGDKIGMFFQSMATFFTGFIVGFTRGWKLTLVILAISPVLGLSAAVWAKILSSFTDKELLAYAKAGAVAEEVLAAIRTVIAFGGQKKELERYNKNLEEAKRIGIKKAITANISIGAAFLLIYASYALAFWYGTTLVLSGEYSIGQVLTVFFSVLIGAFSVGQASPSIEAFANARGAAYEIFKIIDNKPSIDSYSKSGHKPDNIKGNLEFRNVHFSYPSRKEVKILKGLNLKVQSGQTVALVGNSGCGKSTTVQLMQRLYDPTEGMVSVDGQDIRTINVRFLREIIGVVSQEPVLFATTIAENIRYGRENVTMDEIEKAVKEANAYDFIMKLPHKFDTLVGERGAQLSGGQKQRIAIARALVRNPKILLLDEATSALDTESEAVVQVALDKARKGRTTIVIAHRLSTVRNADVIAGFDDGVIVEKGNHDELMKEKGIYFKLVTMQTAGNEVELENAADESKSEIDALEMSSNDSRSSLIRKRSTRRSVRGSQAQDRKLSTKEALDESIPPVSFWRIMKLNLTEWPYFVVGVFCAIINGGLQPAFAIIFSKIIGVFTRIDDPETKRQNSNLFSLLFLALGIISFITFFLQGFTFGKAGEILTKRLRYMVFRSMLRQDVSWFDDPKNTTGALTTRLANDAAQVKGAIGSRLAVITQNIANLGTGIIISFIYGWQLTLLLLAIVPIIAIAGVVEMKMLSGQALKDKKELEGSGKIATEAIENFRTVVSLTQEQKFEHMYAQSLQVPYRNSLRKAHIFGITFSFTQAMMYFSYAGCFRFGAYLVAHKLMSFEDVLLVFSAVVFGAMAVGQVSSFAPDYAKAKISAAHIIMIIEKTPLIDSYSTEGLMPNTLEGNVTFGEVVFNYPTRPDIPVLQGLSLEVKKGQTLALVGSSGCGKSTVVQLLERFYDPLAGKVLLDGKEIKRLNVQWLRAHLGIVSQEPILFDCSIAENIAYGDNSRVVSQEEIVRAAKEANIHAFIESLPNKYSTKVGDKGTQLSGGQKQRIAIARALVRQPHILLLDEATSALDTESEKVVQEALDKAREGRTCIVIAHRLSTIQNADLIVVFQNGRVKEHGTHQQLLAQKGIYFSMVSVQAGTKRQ

Row | inhibition at 3 µM (CYP2C8) [%] | Papp A→B [1] [×10⁻⁶ cm/s] | inhibition at 3 µM (CYP1A2) [%] | inhibition at 3 µM (CYP3A4) [%] | inhibition at 3 µM (CYP2C9) [%] | microsomal CLint at 1 µM [2] [µL/min/mg] | inhibition at 3 µM (CYP2D6) [%] | efflux ratio at 2 µM (MDR1 (ABCB1, P-gp)) | Compound | pIC50 (MDA-MB-468) | pIC50 (BT-474) | pIC50 (NCI-N87) | pIC50 (HUVEC)
1 | 50.5 | 16.6 | 1.5 | 25.3 | 23.7 | 239 | 0.9 | – | COc1ccc2c(c1O)CCCC(CCCC#N)=C2c1cc(OC)c(OC)c(OC)c1 | < 6.00 | 6.04 | 6.08 | 6.16
2 | – | – | – | – | – | – | – | – | COc1ccc2c(c1O)CC=CC=C2c1cc(OC)c(OC)c(OC)c1 | 8.40 | 8.26 | 8.25 | 8.30
3 | – | – | – | – | – | – | – | – | COc1ccc2c(c1O)CCCC(CCC(N)=O)=C2c1cc(OC)c(OC)c(OC)c1 | < 6.00 | < 6.00 | < 6.00 | 6.33
4 | 45.3 | 19.6 | 2.8 | 31.4 | 75.7 | > 320 | 2.8 | 1.2 | COc1ccc2c(c1O)CCCC(CCC#N)=C2c1cc(OC)c(OC)c(OC)c1 | 6.25 | 6.14 | 6.06 | 6.19
5 | – | – | – | – | – | – | – | – | COc1ccc2c(c1O)CCCC(CCN(C)C)=C2c1cc(OC)c(OC)c(OC)c1 | < 6.00 | < 6.00 | < 6.00 | 6.60
6 | – | – | – | – | – | – | – | – | COc1ccc2c(c1O)CCCC(CCO)=C2c1cc(OC)c(OC)c(OC)c1 | 6.94 | 6.66 | 6.70 | 6.81
7 | 83.5 | – | 18.4 | 33.9 | 55.3 | 51.2 | 26.2 | – | COc1ccc2c(c1O)CCCC(Cc1ccccc1)=C2c1cc(OC)c(OC)c(OC)c1 | < 6.00 | < 6.00 | < 6.00 | 6.02
8 | 71.5 | 3.3 | 11.3 | 31.8 | 75 | 136 | 16 | 1 | CCC1=C(c2cc(OC)c(OC)c(OC)c2)c2ccc(OC)c(O)c2CCC1 | 6.52 | 6.45 | 6.48 | 6.71
9 | 83.2 | 6.2 | 19.7 | 39.6 | 91.5 | 108 | 13.5 | 13.1 | COc1ccc2c(c1O)CCCC(C)=C2c1cc(OC)c(OC)c(OC)c1 | 7.35 | 7.28 | 6.69 | 7.11
10 | – | – | – | – | – | – | – | – | COc1ccc2c(c1O)C[C@@H]1C=C[C@@]2(c2cc(OC)c(OC)c(OC)c2)O1 (racemic) | 8.05 | 7.96 | 7.81 | 7.80
11 | 35.4 | 16.1 | 0 | 3.7 | 6.1 | 66.3 | 0 | – | COc1ccc2c(c1O)CCCC(CC(O)CO)=C2c1cc(OC)c(OC)c(OC)c1 (racemic) | 6.04 | 6.00 | < 6.00 | < 6.00
12 | – | – | – | – | – | – | – | – | COc1ccc(/C=C\c2cc(OC)c(OC)c(OC)c2)cc1O [COMBRETASTATIN A4] | 8.96 | 8.41 | 8.60 | 8.60

Row | Compound | inhibition at 3 µM (CYP2C8) [%] | Papp A→B [1] [×10⁻⁶ cm/s] | inhibition at 3 µM (CYP1A2) [%] | inhibition at 3 µM (CYP3A4) [%] | inhibition at 3 µM (CYP2C9) [%] | microsomal CLint at 1 µM [2] [µL/min/mg] | inhibition at 3 µM (CYP2D6) [%] | efflux ratio at 2 µM (MDR1 (ABCB1, P-gp)) | pIC50 (MDA-MB-468) | pIC50 (BT-474) | pIC50 (NCI-N87) | pIC50 (HUVEC)
13 | COc1ccc2c(c1O)CCCC=C2c1cc(OC)c(OC)c(OC)c1 | 77.6 | – | 19 | 16.1 | 89.7 | 54.1 | 6.2 | – | 8.82 | 8.54 | 8.42 | 8.34
14 | COc1cc2c(c(OC)c1OC)-c1ccc(OC)c(=O)cc1[C@@H](NC(C)=O)CC2 [COLCHICINE] | 20.4 | 0.76 | – | – | 11.1 | – | 7.7 | – | 8.68 | 8.42 | 8.27 | 7.88
